In a melting point compilation (Tetko et al.):

melting point [°C]	SMILES
176 to 178	O=C(O)C1CCN1Cc1ccccc1 (stereo not drawn)
276 to 278	O=C(O)c1cnc2c(Br)cccc2c1O
143 to 147	O=C(O)c1ccccc1NS(=O)(=O)c1ccc(Cl)c(Cl)c1
115 to 117	O=C(O)CCOc1ccccc1Cl
147 to 149	COCCN(CCOC)S(=O)(=O)c1ccc(C(=O)O)cc1
48 to 50	CC(C)NC(=O)OCC(F)(F)F
214 to 216	NC(=O)c1ccc(OCCC(=O)O)cc1
114 to 116	CCCC(NC(C)=O)C(=O)O (stereo not drawn)
154 to 156	COc1ccccc1NC(=O)CC(=O)Nc1ccccc1OC
106 to 108	COC(=O)c1cc(C)cc([N+](=O)[O-])c1N
89 to 91	CC1(C)CCCCC1=CC(=O)O
246 to 248	CCNC(=O)CN(CC)C(=O)CCl
161 to 163	Cc1ccc(Cn2nc(C)c(/C=C/C(=O)O)c2C)cc1
288 to 290	Cn1c(C(=O)O)cc2c(=O)n3ccccc3nc21
74 to 76	CC(=O)c1c(C)cc(C)c(CCl)c1C
94 to 96	CC(C#N)NC(=O)OC(C)(C)C (stereo not drawn)
155 to 157	Cn1c(-c2ccccc2)c(C(=O)CC#N)c2ccccc21
139 to 141	NC(=O)CCS(=O)(=O)CCCl
223 to 225	COC(=O)c1cc(=O)c2ccccc2[nH]1
178 to 180	Cc1ccccc1Sc1ccc(C(=O)O)cc1
120 to 122	CCOC(=O)c1sc(NCCCC(=O)O)nc1-c1ccccc1
179 to 181	O=C(O)C1CCCN(c2ccc(Cl)nn2)C1 (stereo not drawn)

melting point [°C]	SMILES
114 to 116	CC(C)OCc1ccc(C(=O)O)cc1
279 to 281	CCC1(c2ccc(O)cc2)NC(=O)NC1=O (stereo not drawn)
150 to 155	CC(C)CN(C(=O)CCl)C1CCS(=O)(=O)C1 (stereo not drawn)
64 to 66	COC(=O)c1cnn2c1CCCC2
103 to 105	CC(C)(C)OC(=O)Nc1cccc(CCl)c1
39 to 41	CC(C(=O)O)c1ccc(Cl)c(Cl)c1 (stereo not drawn)
114 to 116	CC(Sc1ccc([N+](=O)[O-])cc1)C(=O)O (stereo not drawn)
225 to 227	Cc1ccccc1C(N)CC(=O)O (stereo not drawn)
159 to 161	CCc1ccc(C(=O)O)cc1S(=O)(=O)N1CCOCC1
139 to 141	CC(=O)c1ccc(NC(=O)CI)cc1
203 to 205	O=C(O)c1occc1CN1C(=O)Cc2ccccc21
288 to 290	CCCn1c(=O)[nH]c(=O)c2[nH]cnc21
36 to 38	CCCOC(=O)c1ccc(S(=O)(=O)Cl)cc1
132 to 134	Cc1cc(C(=O)NN)c(C)o1
78 to 80	O=C(O)C1CC1c1cccc(F)c1 (stereo not drawn)
88 to 90	Cc1cc(C)cc(OCCC(=O)O)c1
154 to 156	O=C(O)c1cc(F)c(F)c(S(=O)(=O)Cl)c1
66 to 68	Cc1nc(CCCC(=O)O)cs1
135 to 137	CC(NC(=O)c1ccc(Br)s1)C(=O)O (stereo not drawn)
92 to 94	CC(C)(C)OC(=O)Nc1cc(N)ccc1F
209 to 211	O=C(CCC1CCCCC1)Nc1ccc(C(=O)O)c(O)c1
227 to 229	NC(CC(=O)O)c1cccc(Cl)c1 (stereo not drawn)

melting point [°C]	SMILES
176 to 178	O=C(Nc1ccc(O)cc1C(=O)O)OCc1ccccc1
155 to 157	NC(=O)Nc1ccccc1-c1ccccc1
192 to 194	O=C(O)Cn1ccc2cc([N+](=O)[O-])ccc21
132 to 134	COC(=O)c1ccc(NC(C)=O)c(C)c1
59 to 61	CCOC(=O)c1cnn(C)c1-c1ccccc1
173 to 175	CCNC(=O)c1cccc(NC(=O)CCl)c1
105 to 107	COC(=O)CNc1ccc(Br)cn1
264 to 266	O=CNc1ccc(C(=O)O)cc1
125 to 127	O=C(O)C1CCCCN1S(=O)(=O)c1ccc(Br)s1 (stereo not drawn)
109 to 111	Cc1csc(C2(O)C(=O)N(Cc3ccccc3)CC2C(=O)O)n1 (stereo not drawn)
103 to 105	CCN(CC)S(=O)(=O)c1ccc(NC(=O)CCl)cc1
173 to 175	CCn1c(SCC(=O)O)nnc1-c1ccco1
136 to 138	O=C(O)CNS(=O)(=O)c1c(F)cc(F)cc1Br
174 to 176	CC(C)(C)n1ccnc1SCC(=O)O
150 to 152	O=C(O)c1coc2ccccc12
211 to 213	CCc1nc2ccccc2n1CC(=O)NN
86 to 88	CCOC(=O)c1c(CCCO)cnc2nc(C(=O)OC)nn12
49 to 51	CCCS(=O)(=O)N1CCC(N)CC1
52 to 54	N#CCCN1CCS1(=O)=O
199 to 201	O=C(O)c1ccc(Cn2ccccc2=O)o1

Second part, the molecule before the results:

SMILES	melting point [°C]
O=C1CCS(=O)(=O)c2ccc(F)cc21	163 to 167
Fc1ccccc1-c1nnc(S)[nH]1	154 to 156
COC(=O)c1cc2c(F)cc(Br)cc2[nH]1	190 to 192
Nn1c(S)nnc1C1CCCO1 (stereo not drawn)	143 to 147
CN(C)c1ncnc(Cl)c1C=O	141 to 143
N#Cc1ccc(C=C2CCn3c2nc2cc(C(=O)O)ccc2c3=O)cc1	300 to 302
CS(=O)(=O)c1ccc(N)c(Br)c1	207 to 209
Nc1ccc(Cc2nnn[nH]2)cc1	174 to 176
O=C(NC1CCCC1)c1ccc(Cl)nn1	139 to 141
O=C(O)c1nn(-c2ccc(F)cc2)c2c1CCC2	202 to 204
O=C(O)CCc1c(-c2ccc(F)cc2)[nH]c2ccc(F)cc12	131 to 135
Clc1ncnc2c(Br)cccc12	159 to 161
O=c1[nH]nc2cnccn12	229 to 231
O=C(O)C#Cc1ccc2c(c1)OCO2	165 to 167
O=C1CC(C(=O)O)CN1 (stereo not drawn)	129 to 131
O=C(O)c1cc(-c2ccccc2)nc2nc(N3CCCCC3)sc12	347 to 349
O=C(Cc1nc2ccccc2[nH]1)C(F)(F)F	249 to 251
NC(=O)C(Cl)c1ccc(Br)cc1 (stereo not drawn)	164 to 166
Cc1cnn(Cc2ccc(N)cc2)c1	78 to 80
O=Cc1nccn1CC(F)(F)F	50 to 52
O=[N+]([O-])c1cc(Br)ccc1S	123 to 125
O=C(Cl)c1cc(Cl)nc2ccccc12	85 to 87
O=C1NC(=O)N2CCCCC12 (stereo not drawn)	114 to 116
c1cn2c(n1)CN(C1CCNCC1)CC2	63 to 65
Fc1cc2nc(Cl)ccc2cc1Br	161 to 163
N#Cc1cc(Br)cs1	47 to 49
Nn1c(S)nnc1-c1ccc(Cl)cc1Cl	90 to 92

SMILES	melting point [°C]
N#Cc1cccc(NC(=O)OCC(F)(F)F)c1	133 to 135
CS(=O)(=O)Nc1cc(Br)ccc1F	143 to 145
Sc1nnc(-c2cccnc2)n1Cc1ccccc1	179 to 181
O=S1(=O)C=CC(N=C=S)C1 (stereo not drawn)	61 to 63
O=C1CCC(Cc2ccc(O)cc2)O1 (stereo not drawn)	104 to 106
Oc1ccc(-c2ccc(F)cc2)nn1	269 to 271
O=Cc1cn(-c2ccccc2)nc1-c1ccc(Cl)cc1	125 to 127
NC(=NO)c1cccc(CN2CCCCC2)c1	153 to 155
N#CC1(N2CCN(Cc3ccccc3)CC2)CCOCC1	105 to 107
NC(=O)c1cc(N)c(F)cc1F	169 to 171
CC(C(=O)O)N1C(=O)C2C3CCC(O3)C2C1=O (stereo not drawn)	189 to 191
O=c1nc(CCl)[nH][nH]1	179 to 181
COc1ccc(CNc2ccncn2)cc1OC	124 to 126
Nc1ccc(OCC2CCCCC2)cc1	53 to 55
CS(=O)(=O)c1ccc(Cl)c(S(=O)(=O)Cl)c1	141 to 143
O=C(Nc1ccc(S(=O)(=O)Cl)cc1[N+](=O)[O-])C(F)(F)F	91 to 93
Cc1nc(N)nc2c1CCCC2	181 to 185
O=c1[nH]c(-c2ccc3c(c2)OCCO3)cs1	229 to 231
O=C1CSc2ccncc2N1	203 to 205
Oc1ccc(CN2CCCC2)c2cccnc12	112 to 114
O=S(=O)(Cl)Cc1cc(Cl)ccc1F	45 to 47
O=C1CCc2ccc(F)cc2N1	187 to 189
CN(Cc1ccccc1)c1ccc([N+](=O)[O-])cn1	56 to 58
C=CCc1cc(C=O)cc(OC)c1O	80 to 82
O=S(=O)(c1cccc(F)c1)N1CCNCC1	97 to 99
CSc1nc(Cl)cc(CCl)n1	28 to 32
Cc1n[nH]cc1C=O	104 to 106

SMILES	melting point [°C]
C#CCn1c(C)nc2ccccc21	67 to 69
Cn1ccnc1C(O)C1CCNCC1 (stereo not drawn)	207 to 209
Cc1nn(-c2ccccc2)c(N)c1C(F)(F)F	77 to 79
O=Cc1csc(-c2ncccn2)n1	197 to 199
N#Cc1cccnc1N1CCC(C(N)=O)CC1	177 to 179
CN(C)S(=O)(=O)c1cccc(-c2nnc(S)n2N)c1	200 to 202
O=C1C=CC=NC1=C(O)Nc1ccncc1	164 to 166
O=C(Cn1cnnn1)N1CCNCC1	143 to 145
Oc1ccc2ccccc2c1CN1CCOCC1	52 to 54
CS(=O)(=O)N1CCN(c2ccc(N)cn2)CC1	178 to 180
O=[N+]([O-])c1ccc(N2CCNCC2)cn1	147 to 149
NC(=O)COc1ccc(N)cc1	124 to 126
NNc1ccc(-n2cccn2)nn1	194 to 196
CNCc1cc(Br)ccc1[N+](=O)[O-]	29 to 31
O=C(O)C1CSC(c2ccsc2)N1 (stereo not drawn)	144 to 146
NC(=O)Nc1cccc(N)c1	125 to 127
O=C(O)c1cnn(-c2ccc(Cl)cc2)c1	237 to 239
Nc1ccc(Cl)cc1-c1nc(C2CCCC2)no1	107 to 109
O=S(=O)(c1ccc2c(c1)CCN2)N1CCCCC1	171 to 173
CNc1nc(-c2ccccc2[N+](=O)[O-])cs1	139 to 141
CC(C)c1ccc(-c2nnn[nH]2)cc1	186 to 188
CN1CCN(C(=O)C2CCc3ccccc3N2)CC1 (stereo not drawn)	113 to 115
Cc1ccc(-c2csc(CC(N)=NO)n2)cc1	146 to 148
O=C(O)c1ccc2c(c1)C(=O)N(C1CCS(=O)(=O)C1)C2=O (stereo not drawn)	239 to 241
NC1CCCCC1O (stereo not drawn)	162 to 164
